A compilation of properties of binary mixtures (doi:10.1016/j.molliq.2019.03.144)

Test: xn = mol fraction of the nth substance listed
Settings: 96.7 kPa

CC(=O)[O-].CC[n+]1ccn(C)c1 + c1ccncc1
viscosity [mPa·s]
Settings | x1 = 0.166 | x1 = 0.318 | x1 = 0.411 | x1 = 0.52 | x1 = 0.649 | x1 = 0.806 | x1 = 0.898 | x1 = 1
303.15 K | 2.54 | 5.96 | – | 15.7 | 27.5 | 51 | 72.6 | 103.2
308.15 K | – | 5.29 | 8.29 | – | 22.7 | – | – | 76.1
313.15 K | 2.12 | 4.72 | 7.27 | 11.55 | 19 | 33.1 | 44.7 | 59.6
318.15 K | 1.95 | 4.22 | 6.42 | 9.99 | 16.09 | 27 | 36 | 47.4
323.15 K | 1.797 | 3.82 | 5.71 | – | 13.77 | 22.7 | – | 38.4
328.15 K | 1.671 | – | 5.11 | 7.68 | 11.88 | – | 24.5 | 31.5
333.15 K | 1.552 | – | 4.6 | 6.82 | – | 16.33 | 20.6 | –
338.15 K | 1.453 | – | 4.16 | 6.09 | 9.11 | 14.04 | 17.63 | 22
343.15 K | – | 2.65 | – | 5.47 | – | 12.35 | 15.11 | –
348.15 K | 1.278 | 2.45 | 3.46 | 4.96 | 7.18 | 10.77 | 13.26 | 16.25
353.15 K | 1.203 | – | 3.18 | 4.48 | 6.45 | 9.52 | 11.59 | 14.03

c1ccncc1 + CC(=O)[O-].CC[n+]1ccn(C)c1
x2 = 0
Settings | viscosity [mPa·s]
303.15 K | 0.843
313.15 K | 0.741
323.15 K | 0.658
333.15 K | 0.59
343.15 K | 0.533
353.15 K | 0.485
